These results are taken from patent publication US12263155B2, “Combinations of monoamine oxidase inhibitors and serotonin receptor agonists and their therapeutic use” (Remedi, Inc., priority 2022, dated 2025).

Usually IC50 stands for the concentration at which inhibition is half-maximal. As a reminder, the Ki is the equilibrium dissociation constant of an inhibitor or competing ligand from its target. Read a high Ki as weaker binding.

The target in this experiment is T1, rat liver MAO-A (Rattus norvegicus, UniProt P21396).
T1 construct: from tissue; host or cells: rat liver
T1 sequence (P21396 1-526): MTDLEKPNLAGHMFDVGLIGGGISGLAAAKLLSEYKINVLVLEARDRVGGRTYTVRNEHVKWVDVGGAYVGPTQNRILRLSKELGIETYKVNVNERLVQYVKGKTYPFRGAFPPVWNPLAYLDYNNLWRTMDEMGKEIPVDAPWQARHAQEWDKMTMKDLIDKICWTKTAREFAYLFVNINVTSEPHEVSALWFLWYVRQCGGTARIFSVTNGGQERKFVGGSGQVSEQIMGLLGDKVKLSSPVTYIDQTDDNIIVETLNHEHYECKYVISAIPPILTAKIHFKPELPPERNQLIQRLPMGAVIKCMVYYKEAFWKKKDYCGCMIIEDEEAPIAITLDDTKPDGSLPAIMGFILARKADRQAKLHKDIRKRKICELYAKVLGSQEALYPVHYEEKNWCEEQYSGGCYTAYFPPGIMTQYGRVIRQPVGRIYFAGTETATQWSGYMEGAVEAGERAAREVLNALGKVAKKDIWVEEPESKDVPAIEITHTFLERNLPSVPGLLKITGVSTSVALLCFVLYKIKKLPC
The experiment is described as follows: In vitro inhibition of rat liver MAO-A. The class given is biochemical. How it is done:
[…] The P2 fraction was prepared and was stored frozen until being thawed for use on the day of assay. Final concentrations of 50 μM [^14C]-serotonin (5-HT) and 10 μM [^14C]-phenylethylamine (PEA) were employed as specific substrates for MAO-A and MAO-B, respectively. Test compound inhibition was based on competition for oxidation of these radio-labeled substrates. MAO-A assay specificity was enhanced by inclusion of 0.1 μM deprenyl to prevent substrate oxidation by MAO-B. Likewise, MAO-B assays included 0.1 μM clorgyline to block MAO-A activity. […] Inhibition of enzymatic activities was expressed as IC50 and as the Ki, which was calculated using the Cheng-Prusoff equation.

As to `O=S1(=O)c2ccc(F)cc2Oc2cc(OCC(F)(F)F)ccc21` [CX157, 3-fluoro-7(2,2,2-trifluorethoxy)phenoxathiine-10,10-dioxide], for the setting “Liver MAO-A”, the “Ki for CX157/Ki for RO-41-1049” value was found to be 0.126. In addition, where the note is “rat liver, 50 μM [14C]-5-HT”, the IC50 came to 2.22 nM. Moreover, for the setting “rat liver, Cheng-Prusoff”, the Ki came to 0.91 nM.
